Data from patent US4725580A (Sanofi, priority 1985, dated 1988).
Starred links: 1 amine or outer side, 2 acyl side, 3 side chain; linkers in the order of their positions; H or OH if unused. Non-standard residues stand in square brackets, D forms with d. Residues, ends and D or L forms follow the SMILES beside them. *: point of attachment. Propanoyl(3-(3-pyridyl)) = O=C(CCc1cccnc1)*; Propanoyl(3-(4-pyridyl)) = O=C(CCc1ccncc1)*; Acetyl(pyridin-2-yl) = O=C(Cc1ccccn1)*; Sta = CC(C)C[C@H](N)[C@@H](O)CC(=O)O; Acetyl(3-pyridyl) = O=C(Cc1cccnc1)*; Acetyl(4-pyridyl) = O=C(Cc1ccncc1)*; X3 = O=C(CC1CCCN([*:1])C1)[*:2]; Nicotinoyl = O=C(c1cccnc1)*; X2 = O=C(CCC(=O)*)c1ccccn1; X6 = O=C(CCC(=O)*)c1cccnc1; X5 = O=C(CCC(O)c1ccccn1)*; X7 = O=C(CCC(O)c1cccnc1)*; Nle = CCCC[C@H](N)C(=O)O; X1 = O=C(CCCc1ccccn1)*; X8 = O=C(CCCc1cccnc1)*; Boc = CC(C)(C)OC(=O)*

Biological target: T1, human plasma renin (Homo sapiens, UniProt P00797)
T1 construct: from tissue; host or cells: human plasma pool
T1 sequence (P00797 67-406): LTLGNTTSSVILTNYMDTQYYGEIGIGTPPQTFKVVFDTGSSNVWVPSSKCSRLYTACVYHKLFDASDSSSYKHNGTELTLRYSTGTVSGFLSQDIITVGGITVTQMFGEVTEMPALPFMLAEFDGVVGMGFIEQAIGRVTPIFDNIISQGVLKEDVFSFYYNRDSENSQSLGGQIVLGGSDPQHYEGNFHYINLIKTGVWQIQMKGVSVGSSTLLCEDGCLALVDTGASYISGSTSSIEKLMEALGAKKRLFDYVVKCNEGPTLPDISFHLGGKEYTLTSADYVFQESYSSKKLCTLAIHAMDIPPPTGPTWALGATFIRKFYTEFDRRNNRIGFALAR
Test: Inhibition of human plasma renin activity (PRA) in vitro, angiotensin I released measured by radioimmunoassay
Assay type: biochemical
Settings: human plasma pool rich in renin, 60 minutes at 37° C., phosphate buffer pH 7.4; 5 to 10 doses; read-out: Inhibition of human PRA -log IC50 M pH 7.4 (converted)
Method: The products according to the invention were studied for their therapeutic properties and especially their inhibitory action on enzymes. More particularly, the compounds were evaluated "in vitro" in terms of their inhibition of human plasma renin activity (PRA).
Human plasma contains the substrate angiotensinogen and the enzyme renin. […] An inhibitor of the conversion enzyme, phenylmethylsulfonyl fluoride (PMSF), is added to the incubation medium.
420 microliters of human plasma
11 to 50 microliters of the product to be studied, at variable concentrations
A solution of acetic acid in methaol (19/1 by volume) and a solution of sodium hydroxide in methanol (2/1 by volume) are prepared. In a mixture of equal volumes of these 2 solutions, a 0.001M stock solution of the peptide is prepared. The subsequent dilutions of the peptide are then made up in the phosphate buffer.
The results are expressed by their logarithmic value (-log IC50).

Structure (SMILES)	IC50
CCCC[C@H](NC(=O)[C@H](Cc1ccccc1)NC(=O)CCC(=O)c1ccccn1)C(=O)N[C@@H](CC(C)C)[C@@H](O)CC(=O)N[C@@H](CC(C)C)C(=O)N[C@@H](Cc1ccccc1)C(=O)OC [SR 42793] (X2-F[Nle][Sta]LF-OMe)	891 nM
CCCC[C@H](NC(=O)[C@H](Cc1ccccc1)NC(=O)c1cccnc1)C(=O)N[C@@H](CC(C)C)[C@@H](O)CC(=O)N[C@@H](C)C(=O)N[C@@H](CC(C)C)C(=O)OC [SR 42873, N-(Nicotinoyl)-Phe-Nle-Sta-Ala-Leu-OMe] (Nicotinoyl-F[Nle][Sta]AL-OMe)	81.3 nM
CCCC[C@H](NC(=O)[C@H](Cc1ccccc1)NC(=O)CCC(O)c1ccccn1)C(=O)N[C@@H](CC(C)C)[C@@H](O)CC(=O)N[C@@H](CC(C)C)C(=O)N[C@@H](Cc1ccccc1)C(=O)OC (stereo partly shown) [SR 42991] (X5-F[Nle][Sta]LF-OMe)	58.9 nM
CCCC[C@H](NC(=O)[C@H](Cc1ccccc1)NC(=O)CCC(=O)c1cccnc1)C(=O)N[C@@H](CC(C)C)[C@@H](O)CC(=O)N[C@@H](CC(C)C)C(=O)N[C@@H](Cc1ccccc1)C(=O)OC [SR 43108, N--(4-(pyridin-3-yl)-4-oxobutyryl)-Phe--Nle--Sta--Leu--Phe--OMe] (X6-F[Nle][Sta]LF-OMe)	447 nM
CCCC[C@H](NC(=O)[C@H](Cc1ccccc1)NC(=O)CCC(O)c1cccnc1)C(=O)N[C@@H](CC(C)C)[C@@H](O)CC(=O)N[C@@H](CC(C)C)C(=O)N[C@@H](Cc1ccccc1)C(=O)OC (stereo partly drawn) [SR 43123, (R,S)--N--(4-(pyridin-3-yl)-4-hydroxybutyryl)-Phe--Nle--Sta--Leu--Phe--OMe] (X7-F[Nle][Sta]LF-OMe)	81.3 nM
CCCC[C@H](NC(=O)[C@H](Cc1ccccc1)NC(=O)Cc1cccnc1)C(=O)N[C@@H](CC(C)C)[C@@H](O)CC(=O)N[C@@H](CC(C)C)C(=O)N[C@@H](Cc1ccccc1)C(=O)OC [SR 43282, N--(pyridin-3-ylacetyl)-Phe--Nle--Sta--Leu--Phe--OMe] ({Acetyl(3-pyridyl)}-F[Nle][Sta]LF-OMe)	79.4 nM
CCCC[C@H](NC(=O)[C@H](Cc1ccccc1)NC(=O)Cc1ccccn1)C(=O)N[C@@H](CC(C)C)[C@@H](O)CC(=O)N[C@@H](CC(C)C)C(=O)N[C@@H](Cc1ccccc1)C(=O)OC [SR 43314, N--(pyridin-2-ylacetyl)-Phe--Nle--Sta--Leu--Phe--OMe] ({Acetyl(pyridin-2-yl)}-F[Nle][Sta]LF-OMe)	295 nM

Second part, the compound after the results:

IC50	Structure (SMILES)
67.6 nM	CCCC[C@H](NC(=O)[C@H](Cc1ccccc1)NC(=O)CCc1cccnc1)C(=O)N[C@@H](CC(C)C)[C@@H](O)CC(=O)N[C@@H](CC(C)C)C(=O)N[C@@H](Cc1ccccc1)C(=O)OC [SR 43454, N--(3-(pyridin-3-yl)propionyl)-Phe--Nle--Sta--Leu--Phe--OMe] ({Propanoyl(3-(3-pyridyl))}-F[Nle][Sta]LF-OMe)
100 nM	CCCC[C@H](NC(=O)[C@H](Cc1ccccc1)NC(=O)CCCc1ccccn1)C(=O)N[C@@H](CC(C)C)[C@@H](O)CC(=O)N[C@@H](CC(C)C)C(=O)N[C@@H](Cc1ccccc1)C(=O)OC [SR 43484, N--(4-(pyridin-2-yl)butyryl)-Phe--Nle--Sta--Leu--Phe--OMe] (X1-F[Nle][Sta]LF-OMe)
174 nM	CCCC[C@H](NC(=O)[C@H](Cc1ccccc1)NC(=O)CC1CCCN(C(=O)OC(C)(C)C)C1)C(=O)N[C@@H](CC(C)C)[C@@H](O)CC(=O)N[C@@H](CC(C)C)C(=O)N[C@@H](Cc1ccccc1)C(=O)OC (stereo partly shown) [SR 43519, N--(N--Boc--piperidin-3-ylacetyl)-Phe--Nle--Sta--Leu--Phe--OMe] (Boc-[X3]F[Nle][Sta]LF-OMe)
204 nM	CCCC[C@H](NC(=O)[C@H](Cc1ccccc1)NC(=O)CCc1ccncc1)C(=O)N[C@@H](CC(C)C)[C@@H](O)CC(=O)N[C@@H](CC(C)C)C(=O)N[C@@H](Cc1ccccc1)C(=O)OC [SR 43633, N--(3-(pyridin-4-yl)propionyl)-Phe--Nle--Sta--Leu--Phe--OMe] ({Propanoyl(3-(4-pyridyl))}-F[Nle][Sta]LF-OMe)
132 nM	CCCC[C@H](NC(=O)[C@H](Cc1ccccc1)NC(=O)Cc1ccncc1)C(=O)N[C@@H](CC(C)C)[C@@H](O)CC(=O)N[C@@H](CC(C)C)C(=O)N[C@@H](Cc1ccccc1)C(=O)OC [SR 43781, N--(pyridin-4-ylacetyl)-Phe--Nle--Sta--Leu--Phe--OMe] ({Acetyl(4-pyridyl)}-F[Nle][Sta]LF-OMe)
41.7 nM	CCCC[C@H](NC(=O)[C@H](Cc1ccccc1)NC(=O)CCCc1cccnc1)C(=O)N[C@@H](CC(C)C)[C@@H](O)CC(=O)N[C@@H](CC(C)C)C(=O)N[C@@H](Cc1ccccc1)C(=O)OC [SR 43782, N--(4-(pyridin-3-yl)butyryl)-Phe--Nle--Sta--Leu--Phe--OMe] (X8-F[Nle][Sta]LF-OMe)
